Experimental data: ChEMBL document CHEMBL4715760, “Balancing potency, metabolic stability and permeability in pyrrolopyrimidine-based EGFR inhibitors” (Eur J Med Chem, 2016)

Legend:
[1] = biological target: Aurora kinase B (Homo sapiens) (UniProt Q96GD4); assay: Inhibition of recombinant full length His-tagged human AURKB expressed in baculovirus expression system at 500 nM using Ser/Thr 01 as substrate incubated for 1 hr in presence of ATP at its Km concentration by Z'-LYTE assay relative to control
Chain of Aurora kinase B (Homo sapiens) (Q96GD4 whole entry): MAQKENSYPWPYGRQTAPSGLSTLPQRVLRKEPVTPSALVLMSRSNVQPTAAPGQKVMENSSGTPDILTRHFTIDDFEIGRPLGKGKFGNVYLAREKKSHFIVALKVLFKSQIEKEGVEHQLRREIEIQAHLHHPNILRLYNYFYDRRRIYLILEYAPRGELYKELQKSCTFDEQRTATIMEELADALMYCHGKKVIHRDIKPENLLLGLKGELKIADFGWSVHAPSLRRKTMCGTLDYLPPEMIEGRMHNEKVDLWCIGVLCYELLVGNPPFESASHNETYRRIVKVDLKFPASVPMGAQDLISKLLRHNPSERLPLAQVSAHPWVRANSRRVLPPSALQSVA

[2] = biological target: Tyrosine-protein kinase Fyn (Homo sapiens) (UniProt P06241); assay: Inhibition of recombinant human C-terminal His-tagged full length FYN expressed in baculovirus expression system at 500 nM using Tyr 02 peptide as substrate incubated for 1 hr in presence of ATP at its Km concentration by Z'-LYTE assay relative to control
Chain of Tyrosine-protein kinase Fyn (Homo sapiens) (P06241 2-537 limits assumed): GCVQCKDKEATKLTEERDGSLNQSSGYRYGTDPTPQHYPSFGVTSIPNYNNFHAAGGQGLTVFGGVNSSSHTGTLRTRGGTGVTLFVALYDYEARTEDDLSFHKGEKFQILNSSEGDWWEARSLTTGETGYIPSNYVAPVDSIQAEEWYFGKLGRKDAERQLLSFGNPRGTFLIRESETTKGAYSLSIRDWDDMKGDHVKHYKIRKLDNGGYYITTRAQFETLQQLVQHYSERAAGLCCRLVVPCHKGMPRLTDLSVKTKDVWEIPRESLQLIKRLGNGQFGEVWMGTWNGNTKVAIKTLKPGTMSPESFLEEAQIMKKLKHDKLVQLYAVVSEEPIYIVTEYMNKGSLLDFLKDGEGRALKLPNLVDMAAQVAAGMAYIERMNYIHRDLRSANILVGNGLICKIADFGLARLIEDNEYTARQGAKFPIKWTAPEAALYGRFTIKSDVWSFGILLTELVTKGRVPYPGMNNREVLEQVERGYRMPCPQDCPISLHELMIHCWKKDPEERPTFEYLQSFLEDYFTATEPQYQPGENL

[3] = biological target: Proto-oncogene tyrosine-protein kinase receptor Ret (Homo sapiens) (UniProt P07949); assay: Inhibition of recombinant human GST-tagged RET (658 to 1114 residues) expressed in baculovirus expression system at 500 nM using Tyr 02 as substrate incubated for 1 hr in presence of ATP at its Km concentration by Z'-LYTE assay relative to control
[4] = biological target: Tyrosine-protein kinase Yes (Homo sapiens) (UniProt P07947); assay: Inhibition of full length recombinant GST-tagged human YES1 expressed in baculovirus expression system at 500 nM using Tyr 02 as substrate incubated for 1 hr in presence of ATP at its Km concentration by Z'-LYTE assay relative to control
[5] = biological target: Protein kinase C alpha type (Homo sapiens) (UniProt P17252); assay: Inhibition of human full length GST-tagged PRKCA expressed in insect cells at 500 nM using Ser/Thr 07 as substrate incubated for 1 hr in presence of ATP at its Km concentration by Z'-LYTE assay relative to control
[6] = biological target: Tyrosine-protein kinase JAK2 (Homo sapiens) (UniProt O60674); assay: Inhibition of human recombinant GST tagged JAK2 catalytic domain expressed in baculovirus expression system at 500 nM using Tyr 06 as substrate incubated for 1 hr in presence of ATP at its Km concentration by Z'-LYTE assay relative to control
Chain of Tyrosine-protein kinase JAK2 (Homo sapiens) (O60674 whole entry, the tested form may be a part): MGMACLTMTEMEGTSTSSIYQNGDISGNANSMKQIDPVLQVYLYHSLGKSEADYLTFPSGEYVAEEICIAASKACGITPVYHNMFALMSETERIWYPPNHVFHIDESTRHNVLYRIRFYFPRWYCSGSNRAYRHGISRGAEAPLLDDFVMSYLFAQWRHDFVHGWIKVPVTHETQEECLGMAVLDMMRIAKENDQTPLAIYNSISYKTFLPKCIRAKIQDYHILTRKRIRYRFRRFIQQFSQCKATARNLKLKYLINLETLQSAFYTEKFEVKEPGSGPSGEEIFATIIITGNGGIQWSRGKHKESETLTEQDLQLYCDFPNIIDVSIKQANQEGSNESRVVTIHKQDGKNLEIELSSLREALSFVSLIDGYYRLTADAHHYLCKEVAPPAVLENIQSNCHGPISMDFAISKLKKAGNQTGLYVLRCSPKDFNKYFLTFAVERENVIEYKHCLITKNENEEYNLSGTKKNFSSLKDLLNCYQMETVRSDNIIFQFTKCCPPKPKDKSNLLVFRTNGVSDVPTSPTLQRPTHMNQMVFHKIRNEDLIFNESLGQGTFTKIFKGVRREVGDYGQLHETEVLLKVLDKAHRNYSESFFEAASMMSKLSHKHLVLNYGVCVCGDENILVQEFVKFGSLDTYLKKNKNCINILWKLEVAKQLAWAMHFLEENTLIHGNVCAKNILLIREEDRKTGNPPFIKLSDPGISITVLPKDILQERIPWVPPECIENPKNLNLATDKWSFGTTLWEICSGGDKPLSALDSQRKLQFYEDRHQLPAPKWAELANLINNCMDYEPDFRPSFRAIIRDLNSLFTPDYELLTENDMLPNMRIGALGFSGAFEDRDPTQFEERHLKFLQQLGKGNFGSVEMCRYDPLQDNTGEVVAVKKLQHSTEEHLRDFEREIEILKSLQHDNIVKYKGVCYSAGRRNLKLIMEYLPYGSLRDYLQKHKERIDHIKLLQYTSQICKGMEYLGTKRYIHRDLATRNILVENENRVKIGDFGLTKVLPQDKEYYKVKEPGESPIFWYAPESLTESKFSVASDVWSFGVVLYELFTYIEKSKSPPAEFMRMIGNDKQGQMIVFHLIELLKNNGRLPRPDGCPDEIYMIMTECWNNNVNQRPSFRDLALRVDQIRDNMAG

A-431 = assay: Antiproliferative activity against human A431 cells; assay type: functional, cell-based
[7] = biological target: Tyrosine-protein kinase Lyn (Homo sapiens) (UniProt P07948); assay: Inhibition of recombinant full length human GST-tagged LYN-A expressed in insect cells at 500 nM using Tyr 02 as substrate incubated for 1 hr in presence of ATP at its Km concentration by Z'-LYTE assay relative to control
[8] = biological target: Mitogen-activated protein kinase 1 (Homo sapiens) (UniProt P28482); assay: Inhibition of recombinant full length GST-tagged human MAPK1 expressed in Escherichia coli at 500 nM using Ser/Thr 03 as substrate incubated for 1 hr in presence of 100 uM ATP by Z'-LYTE assay relative to control
Chain of Mitogen-activated protein kinase 1 (Homo sapiens) (P28482 whole entry): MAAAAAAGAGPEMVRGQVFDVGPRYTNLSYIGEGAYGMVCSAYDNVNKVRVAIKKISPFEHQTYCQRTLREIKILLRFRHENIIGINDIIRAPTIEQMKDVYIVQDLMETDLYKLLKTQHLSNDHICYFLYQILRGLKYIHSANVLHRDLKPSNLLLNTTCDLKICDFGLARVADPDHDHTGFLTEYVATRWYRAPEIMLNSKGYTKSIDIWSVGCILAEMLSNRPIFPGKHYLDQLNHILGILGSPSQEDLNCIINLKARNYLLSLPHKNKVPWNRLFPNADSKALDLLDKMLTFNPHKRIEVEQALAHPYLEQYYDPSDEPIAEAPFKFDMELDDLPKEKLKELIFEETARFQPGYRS

[9] = biological target: Tyrosine-protein kinase Fgr (Homo sapiens) (UniProt P09769); assay: Inhibition of recombinant full length human C-terminal His-tagged FGR expressed in baculovirus expression system at 500 nM using Tyr 02 peptide as substrate incubated for 1 hr in presence of ATP at its Km concentration by Z'-LYTE assay relative to control
[10] = biological target: Tyrosine-protein kinase Lck (Homo sapiens) (UniProt P06239); conditions: dose 500.0 nM, time 1.0 hrs
[11] = biological target: T1, Testis-specific serine/threonine-protein kinase 2 (Homo sapiens) (UniProt Q96PF2); assay: Inhibition of recombinant full length human His-tagged STK22B expressed in baculovirus expression system at 500 nM using Ser/Thr 04 as substrate incubated for 1 hr in presence of ATP at its Km concentration by Z'-LYTE assay relative to control
T1 sequence (whole entry): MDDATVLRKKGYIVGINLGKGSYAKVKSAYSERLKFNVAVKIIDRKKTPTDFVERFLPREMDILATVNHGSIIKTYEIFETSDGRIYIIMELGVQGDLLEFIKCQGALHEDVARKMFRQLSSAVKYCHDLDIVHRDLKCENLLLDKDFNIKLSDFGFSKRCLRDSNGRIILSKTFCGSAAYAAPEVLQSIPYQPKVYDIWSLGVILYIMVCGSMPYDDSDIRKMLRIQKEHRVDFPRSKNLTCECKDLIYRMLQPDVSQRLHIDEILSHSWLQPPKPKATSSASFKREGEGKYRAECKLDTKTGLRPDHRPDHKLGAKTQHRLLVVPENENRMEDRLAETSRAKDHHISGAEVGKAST

[12] = biological target: Receptor tyrosine-protein kinase erbB-4 (Homo sapiens) (UniProt Q15303); assay: Inhibition of recombinant human N-terminal GST-tagged ERBB4 catalytic domain (708 to 993 residues) expressed in baculovirus expression system at 500 nM using Tyr 01 peptide as substrate incubated for 1 hr in presence of ATP at its Km concentration by Z'-LYTE assay relative to control
[13] = biological target: Macrophage colony-stimulating factor 1 receptor (Homo sapiens) (UniProt P07333); assay: Inhibition of recombinant human His-tagged CSF1R (538 to 910 residues) expressed in baculovirus expression system at 500 nM using Tyr 01 peptide as substrate incubated for 1 hr in presence of ATP at its Km concentration by Z'-LYTE assay relative to control
Chain of Macrophage colony-stimulating factor 1 receptor (Homo sapiens) (P07333 whole entry, the tested form may be a part): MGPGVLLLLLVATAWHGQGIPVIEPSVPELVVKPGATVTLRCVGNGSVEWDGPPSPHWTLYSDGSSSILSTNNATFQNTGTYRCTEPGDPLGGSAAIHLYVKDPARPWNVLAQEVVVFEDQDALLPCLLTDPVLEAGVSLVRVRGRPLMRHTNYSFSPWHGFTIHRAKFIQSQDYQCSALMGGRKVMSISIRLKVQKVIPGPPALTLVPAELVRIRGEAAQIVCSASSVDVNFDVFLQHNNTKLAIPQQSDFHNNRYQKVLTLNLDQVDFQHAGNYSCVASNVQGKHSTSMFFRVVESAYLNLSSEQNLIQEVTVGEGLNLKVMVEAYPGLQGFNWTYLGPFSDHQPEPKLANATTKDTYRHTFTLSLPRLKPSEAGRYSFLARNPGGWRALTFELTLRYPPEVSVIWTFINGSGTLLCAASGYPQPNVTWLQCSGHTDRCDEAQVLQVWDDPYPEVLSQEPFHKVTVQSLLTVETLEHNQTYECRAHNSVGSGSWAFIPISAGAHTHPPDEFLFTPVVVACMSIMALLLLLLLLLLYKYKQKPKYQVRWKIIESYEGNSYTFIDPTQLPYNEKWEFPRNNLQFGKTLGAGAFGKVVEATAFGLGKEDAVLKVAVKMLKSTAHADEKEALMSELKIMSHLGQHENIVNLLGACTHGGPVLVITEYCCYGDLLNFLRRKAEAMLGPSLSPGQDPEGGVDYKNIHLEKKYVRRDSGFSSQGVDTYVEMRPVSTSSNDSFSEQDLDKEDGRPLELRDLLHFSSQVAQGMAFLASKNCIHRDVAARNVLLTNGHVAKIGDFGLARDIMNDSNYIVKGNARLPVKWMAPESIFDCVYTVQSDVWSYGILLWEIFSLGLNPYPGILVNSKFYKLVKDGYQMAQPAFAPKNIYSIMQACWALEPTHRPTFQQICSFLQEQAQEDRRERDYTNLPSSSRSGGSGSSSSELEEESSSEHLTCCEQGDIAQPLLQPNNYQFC

[14] = biological target: Vascular endothelial growth factor receptor 1 (Homo sapiens) (UniProt P17948); assay: Inhibition of recombinant human GST-tagged FLT1 catalytic domain (781 to 1338 residues) expressed in baculovirus expression system at 500 nM using Tyr 04 peptide as substrate incubated for 1 hr in presence of ATP at its Km concentration by Z'-LYTE assay relative to control
[15] = biological target: Mitogen-activated protein kinase 14 (Homo sapiens) (UniProt Q16539); assay: Inhibition of recombinant human GST-tagged full length MAPK14 expressed in Escherichia coli expression system at 500 nM using Ser/Thr 04 as substrate incubated for 1 hr in presence of ATP at its Km concentration by Z'-LYTE assay relative to control
Chain of Mitogen-activated protein kinase 14 (Homo sapiens) (Q16539 whole entry, the tested form may be a part): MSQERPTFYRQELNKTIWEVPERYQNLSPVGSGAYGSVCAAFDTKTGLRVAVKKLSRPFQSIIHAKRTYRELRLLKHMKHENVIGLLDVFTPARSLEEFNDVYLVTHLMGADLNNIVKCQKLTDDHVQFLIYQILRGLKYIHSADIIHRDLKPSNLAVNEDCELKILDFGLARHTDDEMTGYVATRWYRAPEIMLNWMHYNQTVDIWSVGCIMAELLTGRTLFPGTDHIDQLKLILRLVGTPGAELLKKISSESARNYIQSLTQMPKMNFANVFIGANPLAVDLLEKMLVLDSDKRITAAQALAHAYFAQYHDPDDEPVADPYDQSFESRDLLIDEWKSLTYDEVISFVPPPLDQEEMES

[16] = biological target: Mast/stem cell growth factor receptor Kit (Homo sapiens) (UniProt P10721); assay: Inhibition of human recombinant His-tagged c-Kit cytoplasmic domain (544 to 976 residues) expressed in baculovirus expression system at 500 nM using Tyr 06 as substrate incubated for 1 hr in presence of ATP at its Km concentration by Z'-LYTE assay relative to control
[17] = biological target: Epidermal growth factor receptor (Homo sapiens, UniProt P00533); conditions: dose 100.0 nM
Description: Inhibition of human EGFR at 100 nM using poly[Glu:Tyr] (4:1) as substrate in presence of [gamma33P]ATP by radiometric HotSpot assay relative to control

[18] = biological target: Focal adhesion kinase 1 (Homo sapiens) (UniProt Q05397); assay: Inhibition of recombinant full length human GST-tagged PTK2 expressed in baculovirus expression system at 500 nM using Tyr 07 as substrate incubated for 1 hr in presence of ATP at its Km concentration by Z'-LYTE assay relative to control
Chain of Focal adhesion kinase 1 (Homo sapiens) (Q05397 2-1052 limits assumed): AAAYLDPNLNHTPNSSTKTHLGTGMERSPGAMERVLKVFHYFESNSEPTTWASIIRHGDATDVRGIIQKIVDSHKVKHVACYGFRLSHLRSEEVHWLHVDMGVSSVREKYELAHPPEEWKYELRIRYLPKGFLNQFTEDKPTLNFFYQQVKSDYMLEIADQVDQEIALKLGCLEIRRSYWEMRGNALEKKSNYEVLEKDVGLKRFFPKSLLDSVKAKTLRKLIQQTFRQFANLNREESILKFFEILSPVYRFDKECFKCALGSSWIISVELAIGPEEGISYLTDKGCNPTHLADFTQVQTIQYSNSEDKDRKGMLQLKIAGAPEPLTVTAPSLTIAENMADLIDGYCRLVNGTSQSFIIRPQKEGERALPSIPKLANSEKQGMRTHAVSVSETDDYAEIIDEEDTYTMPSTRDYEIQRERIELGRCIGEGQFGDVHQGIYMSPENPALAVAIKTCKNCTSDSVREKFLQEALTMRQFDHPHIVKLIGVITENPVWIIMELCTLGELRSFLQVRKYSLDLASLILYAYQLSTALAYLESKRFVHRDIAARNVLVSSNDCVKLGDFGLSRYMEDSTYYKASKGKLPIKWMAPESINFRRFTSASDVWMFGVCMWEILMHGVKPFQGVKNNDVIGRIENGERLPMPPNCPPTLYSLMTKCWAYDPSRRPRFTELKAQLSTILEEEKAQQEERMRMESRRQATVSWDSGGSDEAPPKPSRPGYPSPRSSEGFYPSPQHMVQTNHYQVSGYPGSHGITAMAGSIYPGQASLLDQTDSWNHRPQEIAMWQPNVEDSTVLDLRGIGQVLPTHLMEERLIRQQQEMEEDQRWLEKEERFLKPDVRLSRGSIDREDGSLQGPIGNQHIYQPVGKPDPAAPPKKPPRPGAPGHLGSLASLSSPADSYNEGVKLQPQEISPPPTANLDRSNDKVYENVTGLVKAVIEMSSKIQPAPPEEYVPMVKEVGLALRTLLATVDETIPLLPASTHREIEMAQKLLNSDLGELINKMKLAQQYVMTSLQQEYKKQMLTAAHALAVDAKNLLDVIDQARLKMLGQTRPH

With `OC[C@@H](Nc1ncnc2[nH]c(-c3ccccc3)cc12)c1ccccc1` the inhibition [1] was 13%, the inhibition [2] was 27% and the inhibition [3] was 14%. For the same molecule, the inhibition [4] was 65%, the inhibition [5] was 17% and the inhibition [6] was 34%. The IC50 (A-431) was 300 nM, the inhibition [7] was 47% and the inhibition [8] was 1%. For the same molecule, the inhibition [9] was 73%, the inhibition [10] was 13% and the inhibition [11] was -3%. For the same molecule, the inhibition [12] was 51%, the inhibition [13] was 88% and the inhibition [14] was 8%. It also gave an inhibition [15] of 19% and an inhibition [16] of 20%.
`COc1ccccc1-c1cc2c(N[C@H](CO)c3ccccc3)ncnc2[nH]1` showed an inhibition [1] of 5%, an inhibition [2] of 27% and an inhibition ([17]; tested as the 2H-labelled form) of 99%. The inhibition [3] was 15%, the inhibition [4] was 68% and the inhibition [5] was 15%. The inhibition [6] was 11%, the inhibition [7] was 52% and the inhibition [8] was 1%. For the same molecule, the inhibition [9] was 74%, the inhibition [10] was 17% and the inhibition [18] was -2%. The inhibition [11] was -2%, the inhibition [12] was 79% and the inhibition [13] was 79%. For the same molecule, the inhibition [14] was 5%, the inhibition [15] was 24% and the inhibition [16] was 17%.
Molecule `C#Cc1cccc(Nc2ncnc3cc(OCCOC)c(OCCOC)cc23)c1` [ERLOTINIB] has an IC50 (A-431) of 400 nM, an inhibition [8] of 7% and an inhibition [18] of -3%. For the same molecule, the inhibition [16] was 17%.
Molecule `OCC[C@@H](Nc1ncnc2[nH]c(-c3ccccc3)cc12)c1ccccc1` has an inhibition [1] of 7%, an inhibition [2] of 26% and an inhibition [17] of 99%. For the same molecule, the inhibition [3] was 2%, the inhibition [4] was 50% and the inhibition [5] was -9%. For the same molecule, the inhibition [6] was -1%, the IC50 (A-431) was 800 nM and the inhibition [7] was 16%. For the same molecule, the inhibition [8] was 5%, the inhibition [9] was 67% and the inhibition [10] was 29%. The inhibition [18] was 7%, the inhibition [11] was 7% and the inhibition [12] was 15%. It also gave an inhibition [13] of 74%, an inhibition [14] of -4% and an inhibition [15] of 14%.
With `CN(C)CCNCc1ccc(-c2cc3c(N[C@H](CO)c4ccccc4)ncnc3[nH]2)cc1F` the inhibition [1] was 17%, the inhibition [2] was 55% and the inhibition [17] was 99%. The inhibition [3] was 25%, the inhibition [4] was 81% and the inhibition [6] was 5%. The IC50 (A-431) was over 10000 nM, the inhibition [7] was 13% and the inhibition [9] was 83%. It also gave an inhibition [10] of 81%, an inhibition [18] of 1% and an inhibition [11] of -6%. It also gave an inhibition [12] of 74%, an inhibition [13] of 86% and an inhibition [14] of 12%. It also gave an inhibition [15] of 20% and an inhibition [16] of 1%.
`CCOc1ccccc1-c1cc2c(N[C@H](CO)c3ccccc3)ncnc2[nH]1` showed an inhibition [1] of 1%, an inhibition [2] of 34% and an inhibition [17] of 98%. For the same molecule, the inhibition [3] was 9%, the inhibition [4] was 56% and the inhibition [5] was 1%. For the same molecule, the inhibition [6] was 11%, the IC50 (A-431) was 9200 nM and the inhibition [7] was 14%. The inhibition [8] was 1%, the inhibition [9] was 73% and the inhibition [10] was 26%. For the same molecule, the inhibition [18] was 9%, the inhibition [11] was 2% and the inhibition [12] was 62%. The inhibition [13] was 82%, the inhibition [14] was 3% and the inhibition [15] was 10%.
